Reference: patent US6974816B2, “Combination for the treatment of endothelial damage” (Licentia Ltd., priority 2001, dated 2005)
Where two headings read alike, the source gives them in different places.

Columns and labels:
[1] = test system: left anterior descending coronary artery injured by overdilatation and denudation; settings: after PTCA, versus controls without RPR101511A; cited from earlier work
[2] = test system: CD31-positive cells (endothelium) of the transfected vessel segment; assay: Luminal endothelial cell coverage (CD31-positive cells) in transverse vessel sections; type: in vivo, New Zealand White rabbits
Description: Animals from the 8 groups are also analyzed with regard to luminal endothelial cell coverage from transverse vessel sections. This variable is determined by analysis of the percentage of the luminal surface that is covered by CD31-positive cells (CD31 is an endothelium-specific antibody from DAKO).
To investigate the mechanism underlying the observed beneficial effect of the combination therapy, the extent of endothelialization and the number of smooth muscle cells at the transfected vessel segment are analyzed (see Table 1). At the three-week time point, no difference in endothelial cell coverage is observed between the groups, although a trend towards an increased endothelial cell coverage in the combination group is seen (P=0.088). However, at the six-week time point, both groups that have received VEGF-C gene transfer display an increase in endotheilialization as compared to the control group. […] As shown in Table 4 (see below), the cell number is reduced by 52% (P<0.05) in the combination group as compared to control animal.
Three hours before euthanasia, animals receive an i.v. injection of 50 mg 5-bromo-2′-deoxyuridine (BrdU; Zymed Laboratories, San Francisco, Calif., USA) dissolved in 40% ethanol. After euthanasia, the transferred vessel segment is removed, flushed gently with saline, and divided into 4 parts of equal length. […]

[3] = for Plasma STI571 concentration, day 3 peak: 10 mg/kg/d oral in two daily doses; for Plasma STI571 concentration, day 3 peak / Plasma STI571 concentration, day 10 peak / Plasma STI571 concentration, day 21 peak: 2 h after drug delivery; for Plasma STI571 concentration, day 42: 3 weeks after last dose; for Plasma STI571 concentration, day 3 nadir / Plasma STI571 concentration, day 10 nadir / Plasma STI571 concentration, day 21 nadir: immediately before next administration
Description: The drug, or control (=sterile water) is administered with an oro-gastric sond on trained, unsedated animals 1 h before the gene transfer and is repeated every 12 h thereafter for the following three weeks.
Blood sampling, […] with catheterizations or euthanasia, is performed under slight Fluanisone/Fentanyl sedation. […] The specimen is stored in heparinized tubes shielded from light and plasma is isolated by centrifugation within 2 h and stored at −70° C. STI concentration is determined by high-performance liquid chromatography
For HPLC, plasma proteins are precipitated by the addition of an equal volume of acetonitrile. After 20 to 30 min at room temperature, the precipitated proteins are removed by centrifugation (10,000 g, 5 min) and the supernatants are analyzed by reversed-phase HPLC.
HPLC is performed on Merck-Hitachi LaChrom® equipment. 100 μl of the supernatants are injected onto a Nucleosil® 100-5 C18 column (C-18 modified silica Gel, Macherey & Nagel) protected by a 20 mm guard column of the same material. The sample is eluted with a gradient of acetonitrile in water at a flow rate of 1 ml/min; after 5 min at 10% v/v acetonitrile, the concentration of acetonitrile is increased to 75% v/v over a period of 15 min. The column is prepared for the next sample by washing for 5 min with 75% v/v acetonitrile, returning to 10% acetonitrile over 5 min and 5 min reequilibration. The mobile phase contains 0.05% v/v trifluoroacetic acid. The eluent is monitored using UV absorbance at a wavelength of 265 nm. […] The concentration of the compound is determined by the external standard method using peak heights. […] The calibration standards are processed as above.

[4] = test system: intimal and medial smooth muscle cells; assay: BrdU labelling of dividing smooth muscle cells; type: in vivo, New Zealand White rabbits; settings: 6-week endpoint; mean ± SEM
Description: (§1) Three hours before euthanasia, animals receive an i.v. injection of 50 mg 5-bromo-2′-deoxyuridine (BrdU; Zymed Laboratories, San Francisco, Calif., USA) dissolved in 40% ethanol. After euthanasia, the transferred vessel segment is removed, flushed gently with saline, and divided into 4 parts of equal length. The proximal part is snap-frozen in liquid nitrogen and stored at −70° C. The next part is immersion-fixed in 4% paraformaldehyde/15% sucrose (pH 7.4) for 4 h, rinsed in 15% sucrose (pH 7.4) and embedded in paraffin. The 2nd most distal part is fixed in 70% ethanol overnight and embedded in paraffin. The distal part is fixed in […]/PBS (pH 7.4) for 10 minutes, rinsed in PBS, embedded in OCT compound (Miles) and stored at −70° C. The distal segments from 3 week end-point animals are stained for β-galactosidase activity in X-Gal staining solution at +37° C. for 16 h, followed by fixation similar to that for the second segment. Paraffin sections are used for the detection of endothelium (CD31, DAKO, 1:50), smooth muscle cells (HHF, DAKO, 1:50), macrophages (RAM-11, DAKO, 1:50), and BrdU positive cells (Bu20a, DAKO, 1:50). Controls for immunostainings include incubations with class- and species-matched immunoglobulins and omission of primary antibodies. Morphometry is performed with Leica Q5001lW software with a stereomicroscope connected to a digital camera (Leica).

[5] = test system: intimal and medial smooth muscle cells; assay: Intimal and medial smooth muscle cell number; type: in vivo, New Zealand White rabbits; settings: 6-week endpoint; mean ± SEM
Description: as §1

[6] = rabbit, in vivo
Description: (§2) The cohort groups are also characterized with regard to animal weights, weight changes, extent of balloon injury (IEL damage), blood lipid profiles and basic hematologic parameters.

[7] = rabbit, in vivo; remark: listed apart in the source
Description: as §2
(§3) Blood samples are drawn for complete blood count at the time of euthanasia from randomly selected animals (n=3/group) in the 3-week endpoint cohort.

[8] = test system: arterial intima; settings: after re-injury of the arterial intima; cited from earlier work
[9] = Complete blood count (hematological parameters); settings: 3-week endpoint; mean ± SEM
Description: as §2, §3

In the case of COc1cc2ncc(-c3ccsc3)nc2cc1OC.Cl [RPR101511A, 6,7-di-methoxy-2-thiophen-3-yl-quinoxaline hydrochloride], the total intima/media ratio [1] is given as “significant decrease”.
With Cc1ccc(NC(=O)c2ccc(CN3CCN(C)CC3)cc2)cc1Nc1nccc(-c2cccnc2)n1 [STI571, N-{5-[4-(4-methyl-piperazino-methyl)-benzoylamido]-2-methylphenyl}-4-(3-pyridyl)-2-pyrimidine-amine] the “CD31 positive cell coverage (% of luminal circumference), mean” value ([2]; 3-week endpoint) was 33.7 % of luminal circumference, the “CD31 positive cell coverage (% of luminal circumference), mean” value ([2]; 6-week endpoint) was 60.2 % of luminal circumference and the “Plasma STI571 concentration, day 3 peak” value ([3]; LacZ transfected animals) was 10.27 ± 1.28 µM. The “Plasma STI571 concentration, day 42” value ([3]; LacZ transfected animals) was 0.04 ± 0.01 µM, the “Plasma STI571 concentration, day 10 peak” value ([3]; LacZ transfected animals) was 16.63 ± 1.99 µM and the “Plasma STI571 concentration, day 21 peak” value ([3]; LacZ transfected animals) was 13.18 ± 1.65 µM. The “Plasma STI571 concentration, day 3 nadir” value ([3]; LacZ transfected animals) was 3.57 ± 0.74 µM, the “Plasma STI571 concentration, day 10 nadir” value ([3]; LacZ transfected animals) was 5.16 ± 1.89 µM and the “Plasma STI571 concentration, day 21 nadir” value ([3]; LacZ transfected animals) was 3.86 ± 1.02 µM. For the same compound, the “Plasma STI571 concentration, day 3 peak” value ([3]; VEGF-C transfected animals) was 11.08 ± 1.10 µM, the “Plasma STI571 concentration, day 42” value ([3]; VEGF-C transfected animals) was 0.05 ± 0.01 µM and the “Plasma STI571 concentration, day 10 peak” value ([3]; VEGF-C transfected animals) was 14.26 ± 1.26 µM. The “Plasma STI571 concentration, day 21 peak” value ([3]; VEGF-C transfected animals) was 13.58 ± 1.95 µM, the “Plasma STI571 concentration, day 3 nadir” value ([3]; VEGF-C transfected animals) was 3.11 ± 1.13 µM and the “Plasma STI571 concentration, day 10 nadir” value ([3]; VEGF-C transfected animals) was 2.41 ± 0.43 µM. The “Plasma STI571 concentration, day 21 nadir” value ([3]; VEGF-C transfected animals) was 2.95 ± 0.90 µM, the “BrdU positive SMC (%), intima” value [4] was 0.57 ± 0.13% and the “BrdU positive SMC (%), media” value [4] was 0.39 ± 0.08%. For the same compound, the “Number of SMC, intima” value [5] was 1471 ± 287, the “Number of SMC, media” value [5] was 2403 ± 381 and the “weight” value [6] was 2462 ± 90 g. The “Bands (%)” value [7] was 0 ± 0%, the “Hct (%)” value [7] was 31 ± 1.2% and the “MCH” value [7] was 21 ± 0.8 pg. For the same compound, the “MCV” value [7] was 64 ± 2.0 fL, the “basophiles (%)” value [7] was 0 ± 0% and the “eosinophiles (%)” value [7] was 3.4 ± 1.4%. For the same compound, the “lymphocytes (%)” value [7] was 67.4 ± 4.1%, the “monocytes (%)” value [7] was 2.4 ± 0.7% and the “neutrophils (%)” value [7] was 26.8 ± 2.7%. The “smooth muscle proliferation and lesion formation” value [8] was “inhibit smooth muscle proliferation and leasion formation”, the “Hb” value [9] was 103 ± 3.6 g/L and the “RBC count (× 10^12/l)” value [9] was 4.9 ± 0.2 × 10^12/l. The “WBC count (× 10^9/l)” value [9] was 4.6 ± 0.6 × 10^9/l.
